Assay results as given in patent US5248690A, “Method for treatment of neurodegenerative diseases” (R. J. Reynolds Tobacco Company, priority 1992, dated 1993).

Target: high affinity nicotinic receptors
Assay: Inhibition of L-[3H]nicotine binding to mouse brain membrane preparations
Set-up: species or system Mice (DBA strain)
Conditions: 10 nM L-[3H]nicotine, 2 hr at 4° C., mouse brain membranes, Ki calculated from IC50 by method of Cheng et al.
Protocol: Mice (DBA strain) were maintained on a 12 hour light/dark cycle and were allowed free access to water and food supplied by Wayne Lab Blox, Madison, Wis. Animals used in the present studies were 60 to 90 days of age and weighed 20 to 25 g. Brain membrane preparations were obtained from pooled brain tissue of both males and females.
Mice were killed by cervical dislocation. Brains were removed and placed on an ice-cold platform. […] Protein was determined by the method of Lowry, et al., J. Biol. Chem., Vol. 193, pp. 265-275 (1951), using bovine serum albumin as the standard.
The binding of L-[^3 H]nicotine was measured using a modification of the method of Romano, et al., Science, Vol. 210, pp. 647-650 (1980) as described previously by Marks, et al., Mol. pharmacol., Vol. 30, pp. 427-436 (1986). The binding of L-[^3 H]nicotine was measured using a 2 hr. incubation at 4° C. […] Nonspecific binding was determined by inclusion of 10 μM nonradioactive nicotine in the incubations. The inhibition of L-[^3 H]nicotine binding by test compounds was determined by including one of eight different concentrations of the test compound in the incubation. […] Inhibition constants (Ki values) were calculated from the IC50 values using the method of Cheng, et al., Biochem. Pharmacol., Vol. 22, pp. 3099-3108 (1973). […]

CN1CCCC1c1ccccc1 (racemic) [1-methyl-2-phenylpyrrolidine]
Ki: 3.5 µM
